As usually defined, the IC50 is the midpoint of a concentration-inhibition curve. A low value points to higher potency.

This test addresses Pyruvate dehydrogenase kinase (Homo sapiens, UniProt Q15119+Q15120+Q16654+Q15118). Kind of test: Binding affinity to pyruvate dehydrogenase kinase (unknown origin) by VER-00160364 probe based fluorescence polarization assay. (In general: Fluorescence polarisation rises when a labelled molecule tumbles more slowly, as on binding a larger partner.)
Regarding `O=C(c1ccc(O)cc1O)N1CCCc2cc(F)ccc21`, the IC50 is 0.1 µM. Consider `Cc1cnc(C)c(-c2ccc3c(c2)CCC(c2cccnc2)N3C(=O)c2ccc(O)cc2O)n1` (stereo not given), for which the IC50 came to 0.01 µM. Compared with the last compound, the IC50 is about 10-fold lower.

For `COc1cnc(Cl)nc1-c1ccc2c(c1)CCC(c1cccnc1)N2C(=O)c1ccc(O)cc1O` (stereo not given), the IC50 came to 1 µM. Compared with the last compound, the IC50 is about 100-fold higher. As to `CC1CCc2cc(C(=O)N(C)c3cccc(F)c3)ccc2N1C(=O)c1ccc(O)cc1O` (stereo not given), the IC50 was determined as 0.1 µM. In the case of `CC1CCc2cc(C(=O)N(C)CC(F)(F)F)ccc2N1C(=O)c1cc(Cl)c(O)cc1O` (stereo not given) it was 0.1 µM. In the case of `COCCN(C)S(=O)(=O)c1cnc(-c2ccc3c(c2)CC[C@H](C)N3C(=O)c2ccc(O)cc2O)c(C)c1` it was 0.1 µM; in that of `CC1CCc2cc(C(=O)N(C)Cc3nc4ccccc4n3C)ccc2N1C(=O)c1ccc(O)cc1O` (stereo not given), 0.1 µM; in that of `CC1CCc2cc(F)ccc2N1C(=O)c1ccc(O)cc1O` (stereo not given), 0.1 µM. In the case of `Cc1cnc(Cl)nc1-c1ccc2c(c1)CC[C@H](C)C2C(=O)c1ccc(O)cc1O` (stereo not given in full) it was 0.01 µM; in that of `Cc1cc(S(=O)(=O)NCc2cccnc2)cnc1-c1ccc2c(c1)CC[C@H](C)N2C(=O)c1ccc(O)cc1O`, 0.01 µM. With `CC1CCc2cc(C(=O)N(C)Cc3ccc(Cl)cc3)ccc2N1C(=O)c1ccc(O)cc1O` (stereo not given), the IC50 worked out at 0.01 µM. In the case of `CN(C)C(=O)c1ccc2c(c1)CCCN2C(=O)c1ccc(O)cc1O` it was 0.1 µM; in that of `CC1CCc2cc(Br)ccc2N1C(=O)c1ccc(O)cc1O` (stereo not given), 1 µM.

`CC1CCc2cc(C(=O)N(C)Cc3ccc(F)cc3)ccc2N1C(=O)c1ccc(O)cc1O` (stereo not given) displayed a 50% inhibitory concentration (IC50) of 0.01 µM. In the case of `CC1CCc2cc(C(=O)N3CCC3)ccc2N1C(=O)c1ccc(O)cc1O` (stereo not given) it was 0.1 µM. Compound `CN(C(=O)c1ccc2c(c1)CCCN2C(=O)c1ccc(O)cc1O)c1cccc(F)c1` showed an IC50 of 0.1 µM. This counts as sub-micromolar. In turn, `C[C@@H]1CCc2ccccc2N1C(=O)c1cc(Cl)c(O)cc1O` returned an IC50 of 10 µM.

As for `Nc1ccc2c(c1)CCCN2C(=O)c1ccc(O)cc1O`, the IC50 came to 0.1 µM. Against the preceding compound, the IC50 is about 100-fold lower. Compound `Cc1cc(S(=O)(=O)N2CCOCC2)cnc1-c1ccc2c(c1)CC[C@H](C)N2C(=O)c1ccc(O)cc1O` displayed an IC50 of 0.01 µM.

As to `CC1CCc2cc(C(=O)N(C)Cc3cccnc3)ccc2N1C(=O)c1ccc(O)cc1O` (stereo not given), the IC50 is 0.1 µM. For `Cc1cc(S(=O)(=O)NCCCC(N)=O)cnc1-c1ccc2c(c1)CC[C@H](C)N2C(=O)c1ccc(O)cc1O` the value was 0.01 µM.

In turn, `C[C@@H]1CCc2cc(F)ccc2N1C(=O)c1cc(Cl)c(O)cc1O` showed an IC50 of 10 µM. For `Cc1cc(S(=O)(=O)N2CC(F)(F)C2)cnc1-c1ccc2c(c1)CC[C@H](C)N2C(=O)c1ccc(O)cc1O` the value was 0.01 µM; for `CC(=O)NCCNS(=O)(=O)c1cnc(-c2ccc3c(c2)CC[C@H](C)N3C(=O)c2ccc(O)cc2O)c(C)c1`, 0.01 µM. With `C[C@H]1CCc2cc(F)ccc2N1C(=O)c1ccc(O)cc1O`, the IC50 was determined as 0.1 µM.

In the case of `C[C@H]1CCc2ccccc2N1C(=O)c1cc(F)c(O)cc1O`, the IC50 was determined as 0.1 µM. Take `Cc1cc(S(=O)(=O)N2CCOCC2)cnc1-c1ccc2c(c1)CCC(c1cccnc1)N2C(=O)c1ccc(O)cc1O` (stereo not given): the IC50 came to 0.01 µM. For `Cc1cc(S(=O)(=O)NCc2ccccn2)cnc1-c1ccc2c(c1)CC[C@H](C)N2C(=O)c1ccc(O)cc1O`, the IC50 was determined as 0.01 µM. For `CCc1cc(C(=O)N2c3ccc(F)cc3CCC2C)c(O)cc1O` (stereo not given) the value was 10 µM; for `O=C(c1ccc(O)cc1O)N1c2ccccc2CCC1CNC(=O)C(F)(F)F` (stereo not given), 0.1 µM. In the case of `COC(=O)c1ccc2c(c1)CCCN2C(=O)c1ccc(O)cc1O` it was 1 µM. For `C[C@@H]1CCc2ccccc2N1C(=O)c1ccc(O)cc1O` the value was 10 µM; for `CN(Cc1nc2ccccc2[nH]1)C(=O)c1ccc2c(c1)CCCN2C(=O)c1ccc(O)cc1O`, 0.1 µM; for `CC1CCc2cc(C(=O)N(C)CCc3ccccn3)ccc2N1C(=O)c1ccc(O)cc1O` (stereo not given), 0.1 µM. Consider `C[C@H]1CCc2cc(F)ccc2N1C(=O)c1cc(Cl)c(O)cc1O`, for which the 50% inhibitory concentration (IC50) came to 0.1 µM.

For `O=C(c1ccc2c(c1)CCCN2C(=O)c1ccc(O)cc1O)N1CCC1`, the IC50 is 1 µM. Consider `COc1ccc2c(c1)CCCN2C(=O)c1ccc(O)cc1O`, for which the IC50 came out at 0.1 µM. For `O=C(c1ccc(O)cc1O)N1c2ccccc2CCC1c1cccnc1` (stereo not given) the value was 0.1 µM. On to `CC(C)c1ccc2c(c1)CCCN2C(=O)c1ccc(O)cc1O`, for which the IC50 amounted to 0.1 µM. That is a sub-micromolar value. For `CC1CCc2cc(F)ccc2N1C(=O)c1cc(Cl)c(O)cc1O` (stereo not given) the value was 0.1 µM. For `O=C(c1ccc(O)cc1O)N1CCCc2cc(OC(F)(F)F)ccc21` the value was 1 µM; for `Cc1ccc2c(c1)CCCN2C(=O)c1ccc(O)cc1O`, 0.1 µM; for `C[C@H]1CCc2cc(C(=O)O)ccc2N1C(=O)c1ccc(O)cc1O`, 10 µM. With `CN(CCN)C(=O)c1ccc2c(c1)CCCN2C(=O)c1ccc(O)cc1O`, the IC50 is 1 µM. Consider `CC1CCc2cc(C(=O)N3Cc4ccccc4C3)ccc2N1C(=O)c1ccc(O)cc1O` (stereo not given), for which the IC50 was found to be 0.1 µM. In the case of `COc1ccc(CN(C)C(=O)c2ccc3c(c2)CCC(C)N3C(=O)c2ccc(O)cc2O)cc1OC` (stereo not given) it was 0.1 µM.

Turning to `Cc1cc(S(=O)(=O)N2CCN(C)CC2)cnc1-c1ccc2c(c1)CC[C@H](C)N2C(=O)c1ccc(O)cc1O`, the IC50 came to 0.01 µM.

`CCOC(=O)CN(C)C(=O)c1ccc2c(c1)CCCN2C(=O)c1ccc(O)cc1O`: the IC50 stood at 1 µM.

On to `CC(c1cc2ccccc2o1)N(C)C(=O)c1ccc2c(c1)CCC(C)N2C(=O)c1ccc(O)cc1O` (stereo not given), for which the IC50 came to 0.1 µM. In the case of `COc1ccc(CN(C)C(=O)c2ccc3c(c2)CCC(C)N3C(=O)c2ccc(O)cc2O)cc1` (stereo not given) it was 0.01 µM. `O=C(c1ccc(O)cc1O)N1CCCc2cc(OCc3ccccc3)ccc21` displayed a concentration for half-maximal inhibition (IC50) of 10 µM. In the case of `COc1ccccc1CN(C)C(=O)c1ccc2c(c1)CCC(C)N2C(=O)c1ccc(O)cc1O` (stereo not given) it was 0.1 µM; in that of `CC1CCc2cc(C(=O)N(C)Cc3cc4ccccc4[nH]3)ccc2N1C(=O)c1ccc(O)cc1O` (stereo not given), 0.1 µM. `CS(=O)(=O)NCC1CCc2ccccc2N1C(=O)c1ccc(O)cc1O` (stereo not given): the IC50 is 0.1 µM.

In the case of `O=C(O)c1ccc2c(c1)CCCN2C(=O)c1ccc(O)cc1O`, the IC50 is 10 µM. In the case of `Cc1cncnc1-c1ccc2c(c1)CCC(c1cccnc1)N2C(=O)c1ccc(O)cc1O` (stereo not given) it was 0.01 µM; in that of `CN(CC(F)(F)F)C(=O)c1ccc2c(c1)CCCN2C(=O)c1ccc(O)cc1O`, 1 µM. In the case of `O=C(c1ccc(O)cc1O)N1c2ccc(-c3ncnc4[nH]ccc34)cc2CCC1c1cccnc1` (stereo not given) it was 0.01 µM; in that of `CC(=O)N1CCN(S(=O)(=O)c2cnc(-c3ccc4c(c3)CC[C@H](C)N4C(=O)c3ccc(O)cc3O)c(C)c2)CC1`, 0.01 µM. For the compound `CC1CCc2cc(C(=O)N(C)Cc3ccc(Cl)c(Cl)c3)ccc2N1C(=O)c1ccc(O)cc1O` (stereo not given), the IC50 came to 0.1 µM.

`Cc1cnc(Cl)nc1-c1ccc2c(c1)CCC(c1cccnc1)N2C(=O)c1ccc(O)cc1O` (stereo not given) returned an IC50 of 0.01 µM. As for `CC1CCc2cc(C(=O)N(C)Cc3cnn(C)c3)ccc2N1C(=O)c1ccc(O)cc1O` (stereo not given), the IC50 is 0.1 µM. In the case of `O=C(c1ccc(O)cc1O)N1c2ccc(-c3nc4ccc(Cl)cc4cc3CO)cc2CCC1c1cccnc1` (stereo not given) it was 0.1 µM. Turning to `C[C@@H]1CCc2cc(F)ccc2N1C(=O)c1ccc(O)cc1O`, the IC50 turned out to be 1 µM. This IC50 lies about 10-fold higher than the previous one. In the case of `O=C(c1ccc2c(c1)CCCN2C(=O)c1ccc(O)cc1O)N1CCc2ccccc21` it was 0.1 µM; in that of `CC1CCc2cc(C(=O)N(C)C)ccc2N1C(=O)c1ccc(O)cc1O` (stereo not given), 0.1 µM; in that of `C[C@H]1CCc2cc(C(=O)N(C)Cc3cccnc3)ccc2N1C(=O)c1ccc(O)cc1O`, 0.1 µM. In the case of `CC1CCc2cc(C(=O)N(C)CC(F)(F)F)ccc2N1C(=O)c1ccc(O)cc1O` (stereo not given) it was 0.1 µM; in that of `CC1CCc2cc(C(=O)N(C)Cc3nc4ccccc4s3)ccc2N1C(=O)c1ccc(O)cc1O` (stereo not given), 0.1 µM. For `Cc1cc(S(=O)(=O)N2CCC(F)(F)CC2)cnc1-c1ccc2c(c1)CC[C@H](C)N2C(=O)c1ccc(O)cc1O` the value was 0.1 µM; for `O=C(c1ccc2c(c1)CCCN2C(=O)c1ccc(O)cc1O)N1CCCCC1`, 0.1 µM. With `C[C@H]1CCc2ccccc2N1C(=O)c1ccc(O)cc1O`, the IC50 came out at 0.1 µM. In the case of `O=C(c1ccc(O)cc1O)N1CCCc2cc(Br)ccc21` it was 1 µM; in that of `C[C@H]1CCc2ccccc2N1C(=O)c1cc(Cl)c(O)cc1O`, 0.1 µM; in that of `O=C(c1ccc(O)cc1O)N1c2ccccc2CC[C@@H]1c1cccnc1`, 0.1 µM. Compound `CC1CCc2cc(C(=O)N(C)Cc3nc4ccccc4[nH]3)ccc2N1C(=O)c1ccc(O)cc1O` (stereo not given) gave an IC50 of 0.1 µM. In the case of `O=C(c1ccc2c(c1)CCCN2C(=O)c1ccc(O)cc1O)N1Cc2ccccc2C1` it was 1 µM; in that of `CC1CCc2cc(C(=O)N3CCCCC3)ccc2N1C(=O)c1ccc(O)cc1O` (stereo not given), 0.1 µM. In turn, `CCc1nccnc1-c1ccc2c(c1)CCC(c1cccnc1)N2C(=O)c1ccc(O)cc1O` (stereo not given) yielded a half-inhibitory concentration (IC50) of 0.01 µM.

Regarding `CN(Cc1ccccn1)C(=O)c1ccc2c(c1)CCCN2C(=O)c1ccc(O)cc1O`, the IC50 is 1 µM.

Consider `CC1CCc2cc(C(=O)N(C)Cc3cc4cc(F)ccc4[nH]3)ccc2N1C(=O)c1ccc(O)cc1O` (stereo not given), for which the IC50 turned out to be 0.1 µM.

As for `CC1CCc2ccccc2N1C(=O)c1ccc(O)cc1O` (stereo not given), the 50% inhibitory concentration (IC50) amounted to 0.1 µM. `CN(CC(=O)O)C(=O)c1ccc2c(c1)CCCN2C(=O)c1ccc(O)cc1O` came in with an IC50 of 1 µM. In the case of `Cc1cccnc1-c1ccc2c(c1)CCC(CNS(C)(=O)=O)N2C(=O)c1ccc(O)cc1O` (stereo not given) it was 0.1 µM; in that of `Cc1cc2ccc(F)cc2nc1-c1ccc2c(c1)CCC(c1cccnc1)N2C(=O)c1ccc(O)cc1O` (stereo not given), 0.01 µM.
